Reference: patent publication US10988477B2 (Merck Patent GmbH, priority 2018, dated 2021)
Where a name gives a salt, the structure may show the parent alone. Read-outs that look alike come from different tables or passages of the source.

Experiments:
[1] = biological target: GCN2 kinase (Homo sapiens, UniProt Q9P2K8); test: GCN2 enzyme inhibition assay (Transcreener ADP2 fluorescence polarization); assay type: biochemical; settings: 280 μM ATP
In short: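 ADP formation read by Transcreener FP after a 1 h, 25 °C kinase reaction containing 280 μM ATP, 200 μM (RS)7 substrate and 4 nM GCN2, pH 7.5 Tris buffer. Compounds (0–8 μM final) were added 10 min before ATP. Percent inhibition gave IC50 and apparent Ki via tight-binding fit.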

[2] = biological target: intracellular GCN2 (phosphorylation of the GCN2 substrate eIF2α) (Homo sapiens, UniProt Q9P2K8); test: GCN2 cellular inhibition assay (AlphaScreen SureFire P-eIF2α Ser51, borrelidin-treated U2OS cells); assay type: cell-based
Experimental: Compounds can be screened for their ability to inhibit intracellular GCN2 using an AlphaScreen assay (Perkin Elmer) to detect phosphorylation of the GCN2 substrate eIF2α in borrelidin-treated cells. U2OS cells are plated at 5,000 cells per well in 384-well white polystyrene plates (Corning 3570) in McCoy's 5 A media (GIBCO 26600-023) supplemented with 10% foetal bovine serum (SAFC 12103C), Penicillin/Streptomycin solution diluted 1:100 (Sigma P0781), and 2 mM L-glutamine (Sigma G7513), and allowed to adhere overnight at 37° C. in 5% CO2. Compounds are then added to the cell media from a final concentration of 40 μM in 4-fold serial dilutions. Borrelidin (FluoroChem M01440) is immediately added to the wells to a final concentration of 10 μM and the cells are incubated for 1 h at 37° C. in 5% CO2. After 1 h of treatment with borrelidin, the media is removed, and the cells are lysed with lysis buffer (TGR BioSciences TGRLB) at ambient temperature.
An AlphaScreen SureFire P-eIF2α (Ser51) assay kit (Perkin Elmer TGREIF2S) was used to measure levels of eIF2α phosphorylated on Serine 51. Anti-phosphorylated eIF2α Ser51 antibody-linked acceptor beads (TGR BioScience 6760617) are added to the cell homogenate (diluted 1:250 into a mixture of activation (TGR BioScience TGRAB) and reaction buffer (TGR BioScience TGREIF2S) prepared immediately before use). The plate is then incubated for 2 h at ambient temperature in the dark. Anti-eIF2α antibody-linked donor beads (TGR BioScience 6760617) were then added (diluted 1:100 in dilution buffer (TGR BioScience TGRDB) prepared immediately before use). The plate is then incubated overnight at ambient temperature in the dark.
Plates are analyzed on an Alpha Technology-compatible PHERAstar FS plate reader (BMG Labtech Version 1.14) to quantify phosphorylated eIF2α Ser51 levels. The percentage inhibition of phosphorylated eIF2α is calculated by comparison to control wells stimulated with borrelidin alone.

[3] = compounds of Formula II, 4 nM GCN2 kinase
[4] = compounds of Formula II, biomarker assay, phosphorylated eIF2α Ser51 in borrelidin-treated U2OS cells
[5] = Enzyme activity for compounds of Formula IV, Ki(app), 25° C.
[6] = compounds of Formula IV, biomarker assay, phosphorylated eIF2α Ser51 in borrelidin-treated U2OS cells

GCN2 kinase, sequence (Q9P2K8 whole entry): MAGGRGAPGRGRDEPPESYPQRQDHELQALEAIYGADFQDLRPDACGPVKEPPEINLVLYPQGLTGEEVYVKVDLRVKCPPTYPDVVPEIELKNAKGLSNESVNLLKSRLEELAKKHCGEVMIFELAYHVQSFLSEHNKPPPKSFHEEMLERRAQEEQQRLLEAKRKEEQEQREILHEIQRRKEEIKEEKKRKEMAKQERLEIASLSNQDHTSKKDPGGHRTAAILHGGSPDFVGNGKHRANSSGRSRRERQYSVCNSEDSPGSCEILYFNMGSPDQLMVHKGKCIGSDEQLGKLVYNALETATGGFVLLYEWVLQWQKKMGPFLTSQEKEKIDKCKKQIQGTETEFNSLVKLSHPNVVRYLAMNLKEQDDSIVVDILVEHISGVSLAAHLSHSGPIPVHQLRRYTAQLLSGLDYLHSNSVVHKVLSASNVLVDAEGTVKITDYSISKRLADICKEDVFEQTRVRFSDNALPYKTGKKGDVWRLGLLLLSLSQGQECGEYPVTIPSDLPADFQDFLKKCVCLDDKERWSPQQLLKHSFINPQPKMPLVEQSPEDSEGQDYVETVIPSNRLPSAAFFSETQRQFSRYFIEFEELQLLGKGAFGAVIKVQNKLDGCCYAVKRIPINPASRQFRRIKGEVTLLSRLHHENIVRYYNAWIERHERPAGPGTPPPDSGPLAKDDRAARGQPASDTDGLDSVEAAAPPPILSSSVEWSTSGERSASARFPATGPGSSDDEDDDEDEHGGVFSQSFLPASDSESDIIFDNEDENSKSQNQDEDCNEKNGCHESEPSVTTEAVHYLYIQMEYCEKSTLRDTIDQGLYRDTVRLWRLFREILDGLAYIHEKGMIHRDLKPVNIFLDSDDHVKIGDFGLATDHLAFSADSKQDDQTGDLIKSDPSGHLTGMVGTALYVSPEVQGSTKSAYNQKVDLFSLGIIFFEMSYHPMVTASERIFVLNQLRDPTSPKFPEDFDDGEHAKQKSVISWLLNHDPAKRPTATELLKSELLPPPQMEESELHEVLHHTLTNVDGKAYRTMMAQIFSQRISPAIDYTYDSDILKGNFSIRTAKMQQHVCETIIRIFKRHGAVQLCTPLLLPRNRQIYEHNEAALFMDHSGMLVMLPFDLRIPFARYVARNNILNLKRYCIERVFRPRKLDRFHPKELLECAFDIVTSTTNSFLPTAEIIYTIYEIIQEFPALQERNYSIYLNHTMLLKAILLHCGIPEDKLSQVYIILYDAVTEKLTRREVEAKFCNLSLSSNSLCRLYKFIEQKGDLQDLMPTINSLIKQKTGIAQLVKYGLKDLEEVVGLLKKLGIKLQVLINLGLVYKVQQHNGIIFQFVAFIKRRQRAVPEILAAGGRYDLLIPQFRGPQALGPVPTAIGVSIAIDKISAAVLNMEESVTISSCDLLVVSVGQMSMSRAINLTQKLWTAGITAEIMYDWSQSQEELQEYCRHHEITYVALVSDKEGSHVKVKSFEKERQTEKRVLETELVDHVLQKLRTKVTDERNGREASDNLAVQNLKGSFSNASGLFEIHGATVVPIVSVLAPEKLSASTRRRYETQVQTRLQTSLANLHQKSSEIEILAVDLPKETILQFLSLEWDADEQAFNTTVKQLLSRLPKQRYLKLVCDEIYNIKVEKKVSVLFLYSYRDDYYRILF
intracellular GCN2 (phosphorylation of the GCN2 substrate eIF2α), sequence (Q9P2K8 whole entry): as above

Structure (SMILES)	Ki [1, 3] [nM]	IC50 [2, 4] [nM]	Ki [1, 5] [nM]	IC50 [2, 6] [nM]	further results
Cc1ccc2ncc(-c3ccnc(N4CCCC(CNS(C)(=O)=O)C4)c3)n2n1 (centres unmarked) [II-183, N-((1-(4-(6-Methylimidazo[1,2-b]pyridazin-3-yl)pyridin-2-yl)piperidin-3-yl)methyl)methanesulfonamide]	10 to 1000	500 to 5000			
O=C1NCC2CCN(c3cc(-c4cnc5ccc(C(F)F)nn45)ncn3)CC12 (centres unmarked) [II-200, 5-(6-(6-(Difluoromethyl)imidazo[1,2-b]pyridazin-3-yl)pyrimidin-4-yl)octahydro-3H-pyrrolo[3,4-c]pyridin-3-one]	10 to 1000	> 5000			
CC1CC(C(N)=O)C(C)N(c2cc(-c3cnc4ccc(C(F)(F)F)nn34)ncn2)C1 (racemic) [II-720, 2,5-Dimethyl-1-[6-[6-(trifluoromethyl)imidazo[1,2-b]pyridazin-3-yl]pyrimidin-4-yl]piperidine-3-carboxamide]	10 to 1000	500 to 5000			
CN=S(C)(=O)CC1CCCN(c2cc(-c3cnc4ccc(C(F)F)nn34)ncn2)C1 (centres unmarked) [II-26, [1-[6-[6-(Difluoromethyl)imidazo[1,2-b]pyridazin-3-yl]pyrimidin-4-yl]-3-piperidyl]methyl-methyl-methylimino-oxo-sulfane]	10 to 1000	> 5000			
CS(=O)(=O)NCC12CC1CN(c1cc(-c3cnc4ccc(C(F)F)nn34)ncn1)C2 (centres unmarked) [II-447, N-((3-(6-(6-(Difluoromethyl)imidazo[1,2-b]pyridazin-3-yl)pyrimidin-4-yl)-3-azabicyclo[3.1.0]hexan-1-yl)methyl)methanesulfonamide]	10 to 1000	500 to 5000			
CN(C)CC(=O)N(CC1CCCN(c2cc(-c3cnc4ccc(C(F)F)nn34)ncn2)C1)S(C)(=O)=O (centres unmarked) [II-456, N-((1-(6-(6-(Difluoromethyl)imidazo[1,2-b]pyridazin-3-yl)pyrimidin-4-yl)piperidin-3-yl)methyl)-2-(dimethylamino)-N-(methylsulfonyl)acetamide]	10 to 1000	< 500			
CS(=O)(=O)NCC1CN(c2cc(-c3cnc4ccc(C(F)F)nn34)ncn2)CCN1 (centres unmarked) [II-450, N-((4-(6-(6-(Difluoromethyl)imidazo[1,2-b]pyridazin-3-yl)pyrimidin-4-yl)piperazin-2-yl)methyl)methanesulfonamide]	10 to 1000	500 to 5000			
CC1CCC(CNS(C)(=O)=O)CN1c1cc(-c2cnc3ccc(C(F)F)nn23)ncn1 (centres unmarked) [II-3, N-((1-(6-(6-(Difluoromethyl)imidazo[1,2-b]pyridazin-3-yl)pyrimidin-4-yl)-6-methylpiperidin-3-yl)methyl)methanesulfonamide]	< 10	500 to 5000			
CC(=O)N1CCN(c2cc(-c3cnn4ccc(C(F)F)nc34)ncn2)CC1 [III-1, 1-[4-[6-[5-(Difluoromethyl)pyrazolo[1,5-a]pyrimidin-3-yl]pyrimidin-4-yl]piperazin-1-yl]ethanone]					Ki ([1]; compounds of Formula III, 4 nM GCN2 kinase): 10 to 1000 nM; IC50 ([2]; compounds of Formula III, U2OS cells, 10 μM borrelidin, 1 h, read-out: GCN2 Biomarker (IC50)): > 5000 nM
CS(=O)(=O)NC[C@@H]1CN(c2nc(-c3cnc4cnc(C(F)(F)F)cn34)ns2)CCO1 [IV-705, (S)—N-((4-(3-(6-(trifluoromethyl)imidazo[1,2-a]pyrazin-3-yl)-1,2,4-thiadiazol-5-yl)morpholin-2-yl)methyl)methanesulfonamide]			100 to 1000	> 5000	
CC1NCCN(c2cc(-c3cnc4ccc(C(F)F)nn34)ncn2)C1C (centres unmarked) [II-548, 6-(Difluoromethyl)-3-(6-(2,3-dimethylpiperazin-1-yl)pyrimidin-4-yl)imidazo[1,2-b]pyridazine]	> 1000	> 5000			
CC1C(CNS(C)(=O)=O)C(F)(F)CCN1c1cc(-c2cnc3ccc(C(F)F)nn23)ncn1 (centres unmarked) [II-432, N-((1-(6-(6-(Difluoromethyl)imidazo[1,2-b]pyridazin-3-yl)pyrimidin-4-yl)-4,4-difluoro-2-methylpiperidin-3-yl)methyl)methanesulfonamide]	< 10	< 500			
COc1ccc2ncc(-c3ccnc(N4CCN(C(C)=O)CC4)c3)n2n1 [II-204, 1-(4-(4-(6-Methoxyimidazo[1,2-b]pyridazin-3-yl)pyridin-2-yl)piperazin-1-yl)ethan-1-one trifluoroacetate]	10 to 1000	> 5000			
CS(=N)(=O)CC1CCCN(c2cc(-c3cnc4ccc(C(F)F)nn34)ncn2)C1 (centres unmarked) [II-370, ((1-(6-(6-(Difluoromethyl)imidazo[1,2-b]pyridazin-3-yl)pyrimidin-4-yl)piperidin-3-yl)methyl)(imino)(methyl)-λ^6-sulfanone]	10 to 1000	500 to 5000			
Cc1[nH]ncc1[C@@H]1CN(c2cc(-c3cnc4ccc(C(F)(F)F)nn34)ncn2)C[C@H](C)O1 [II-767, (2S,6R)-2-methyl-6-(5-methyl-1H-pyrazol-4-yl)-4-(6-(6-(trifluoromethyl)imidazo[1,2-b]pyridazin-3-yl)pyrimidin-4-yl)morpholine]		< 500			IC50 [1, 3]: 10 to 1000 nM
OCCC1CN(c2cc(-c3cnc4ccc(C(F)F)nn34)ncn2)CCO1 (centres unmarked) [II-498, 2-(4-(6-(6-(Difluoromethyl)imidazo[1,2-b]pyridazin-3-yl)pyrimidin-4-yl)morpholin-2-yl)ethan-1-ol]	10 to 1000	> 5000			

Now from value to molecule, other results behind:

Ki [1, 3] [nM]	IC50 [2, 4] [nM]	Ki [1, 5] [nM]	IC50 [2, 6] [nM]	Structure (SMILES)	further results
10 to 1000	500 to 5000			NS(=O)(=O)C1CCCN(c2cc(-c3cnc4ccc(C(F)F)nn34)ncn2)C1 (centres unmarked) [II-376, 1-(6-(6-(Difluoromethyl)imidazo[1,2-b]pyridazin-3-yl)pyrimidin-4-yl)piperidine-3-sulfonamide]	
		10 to 100	> 5000	CP(C)(=O)C1CC(c2cn[nH]c2)CN(c2ccnc(-c3cnc4cnc(C(F)(F)F)cn34)n2)C1 (single isomer, unassigned) [IV-632, (5-(1H-Pyrazol-4-yl)-1-(2-(6-(trifluoromethyl)imidazo[1,2-a]pyrazin-3-yl)pyrimidin-4-yl)piperidin-3-yl)dimethylphosphine oxide]	
		100 to 1000	> 5000	CC1CC(CS(C)(=N)=O)C(C)N(c2ccnc(-c3cnc4cnc(C(F)F)cn34)n2)C1 (single isomer, unassigned) [IV-366, ((1-(2-(6-(Difluoromethyl)imidazo[1,2-a]pyrazin-3-yl)pyrimidin-4-yl)-2,5-dimethylpiperidin-3-yl)methyl)(imino)(methyl)-λ^6-sulfanone]	
		100 to 1000	> 5000	Cc1[nH]ncc1C1CN(c2ccnc(-c3cnc4cnc(C(F)(F)F)cn34)n2)CC(C)N1 (single isomer, unassigned) [IV-458, 3-(4-(3-Methyl-5-(5-methyl-1H-pyrazol-4-yl)piperazin-1-yl)pyrimidin-2-yl)-6-(trifluoromethyl)imidazo[1,2-a]pyrazine]	
		100 to 1000	> 5000	CC(=O)N1CC=C(c2ccnc(-c3cnc4cnc(C(F)F)cn34)n2)CC1 [IV-156, 1-(4-(2-(6-(Difluoromethyl)imidazo[1,2-a]pyrazin-3-yl)pyrimidin-4-yl)-3,6-dihydropyridin-1(2H)-yl)ethan-1-one]	
		10 to 100	500 to 5000	Brc1cn2c(-c3nccc(N4CCNC(c5cn[nH]c5)C4)n3)cnc2cn1 (centres unmarked) [IV-371, 3-(4-(3-(1H-Pyrazol-4-yl)piperazin-1-yl)pyrimidin-2-yl)-6-bromoimidazo[1,2-a]pyrazine]	
		10 to 100	500 to 5000	FC(F)c1cn2c(-c3nccc(N4CCCC(c5cn[nH]c5)C4)n3)cnc2cn1 (centres unmarked) [IV-58, 3-(4-(3-(1H-Pyrazol-4-yl)piperidin-1-yl)pyrimidin-2-yl)-6-(difluoromethyl)imidazo[1,2-a]pyrazine]	
		100 to 1000	> 5000	FC(F)c1cn2c(-c3nccc(N4CCCC5CC54)n3)cnc2cn1 (centres unmarked) [IV-135, 3-(4-(2-Azabicyclo[4.1.0]heptan-2-yl)pyrimidin-2-yl)-6-(difluoromethyl)imidazo[1,2-a]pyrazine]	
10 to 1000	500 to 5000			FC(F)c1ccc2ncc(-c3cc(N4CCCC(Cn5cncn5)C4)ncn3)n2n1 (centres unmarked) [II-339, 3-(6-(3-((1H-1,2,4-Triazol-1-yl)methyl)piperidin-1-yl)pyrimidin-4-yl)-6-(difluoromethyl)imidazo[1,2-b]pyridazine]	
